Where two headings read alike, the source gives them in different places.
Key:
[1] = target: T1, human cereblon (Homo sapiens, UniProt Q96SW2); experiment: cereblon/BRD3 binding assay (AlphaScreen in methods, FRET assay in results); conditions: dBET1-Cereblon-BRD3 interaction
T1 construct: purchased BPS Bioscience 79770
Protocol: Following 30 min incubation with shaking at room temperature, AlphaLISA anti-FLAG Acceptor and Alpha Glutathione Donor beads (PerkinElmer) were sequentially added and then incubated for a further 1 h at room temperature for each of the added chemicals. Alpha counts were, thereafter, recorded on a Synergy Neo2 (BioTek, Agilent, Santa Clara, CA). The relative activity of the alpha signal was calculated after subtraction of the “blank value” from all readings, and the value of vehicle group was then set as 100%.

[2] = mouse pharmacokinetics, plasma and brain, I.P.; assay type: in vivo; conditions: for Kp / Cmax / Tmax / AUC(0-inf) / AUC(0-t): male, C57/BL6 J, ip; for Kp: brain/plasma, from AUCinfinity values
Protocol: Mice were euthanized from 30 min to 18 h after dosing. Blood samples were collected into heparinized tubes, centrifuged (10,000g × 2 min at 4 °C), and plasma collected and immediately stored at − 80 °C. The brain was rapidly excised on wet ice; a sample of cerebral hemisphere was then removed and immediately frozen to − 80 °C.

[3] = system: mice subjected to controlled cortical impact (CCI) TBI; experiment: CCI TBI in mice: histology and GFAP/IBA1 immunohistochemistry; assay type: in vivo, mouse
Protocol: For behavioral analyses, mice were assessed for spatial memory, gait function, motor coordination/balance function and home cage activity. The animals were subsequently evaluated for cellular changes using histology and immunohistochemistry after euthanasia.
In order to develop a controlled cortical impact (CCI) model of TBI, mice were anesthetized with 2.5% 2,2,2-tribromoethanol (Avertin, 400 mg/kg, I.P.) (Sigma, St. Louis, MO, USA) and placed in a stereotaxic frame (Kopf Instruments, Tujunga, CA, USA). A 4 mm craniotomy was performed under sterile procedures; the craniotomy point was selected midway between the lambda and bregma sutures, and laterally midway between the central suture and the temporalis muscle. The skull fragment was then carefully removed without disruption of the underlying dura on the right side of the head. Before injury, the tip of the impactor was angled and kept perpendicular to the exposed cortical surface. The mouse CCI instrument consisted of an electromagnetic impactor, Impact One (Leica Biosystems Inc., Buffalo Grove, IL, USA) that allows independent manipulation of injury severity by adjusting the contact duration and velocity of a metal impactor and the depth of cortical deformation. In these experiments, the contact velocity was set at 5.0 m/s, the dwell time was set at 0.2 s, and the deformation depth was set at 1.5 mm to produce a moderate TBI. The injury site was cleaned and dried by use of sterile cotton tipped applicators prior to suturing the wound. During surgery and recovery, the body temperature of all animals was maintained at 36–37 °C by using a heating pad.
Two weeks following injury, mice were deeply anesthetized using isoflurane and underwent transcardial perfusion with 30 ml of phosphate-buffered saline (PBS) followed by 120 ml of 4% paraformaldehyde (PFA) in PBS. The brains were collected and placed into a 4% PFA solution for post-fixation overnight, and then transferred to 25% followed by 30% sucrose solution in PBS for dehydration. Sections of a region extending from the striatum to the hippocampus were cut coronally into 25 μm thickness using a cryostat (Leica Biosystems Inc., Buffalo Grove, IL, USA) and stored in a cryoprotectant solution. These sections were subjected to Giemsa (nuclear/chromosomal) staining and immunohistochemical analysis.
Brain sections obtained 2 weeks post-TBI, with a thickness of 25 µm, were placed onto slides. These sections were stained using a 10% Giemsa KH2PO4 buffered solution (pH 4.5) for 30 min at 40 °C. Following a rinse, the slides underwent de-staining, differentiation, dehydration in absolute ethanol, cleared in xylene, and then were cover-slipped. Subsequently, the slides were scanned using an All-in-One Fluorescence Microscope BZ-X710 (Keyence Corporation of America, Itasca, IL, USA). Brain image areas were quantified using ImageJ 1.52q software (National Institutes of Health, Bethesda, MD, USA). The contusion volume size and lateral ventricle size were determined as described previously, using the calculation formulas as follows:
Contusion volume size: Σ (area of contralateral hemisphere–area of ipsilateral hemisphere)/Σ area of contralateral hemisphere × 100.
Lateral ventricle size: Σ area of ipsilateral lateral ventricle/Σ area of contralateral lateral ventricle.
Nine brain sections from each mouse were quantified, spanning regions from bregma 0.86 mm to − 1.46 mm.
Immunohistochemistry for GFAP and IBA1 was performed as described previously. […]

[4] = 100 μg/ml; data derive from ref 64; cited from earlier work
[5] = cited from earlier work
[6] = rat; cited from earlier work
[7] = 2 weeks after CCI, 13.23 and 26.47 mg/kg I.P. at 30 min and 24 h
[8] = both low and high doses, p < 0.0001

T1 sequence (Q96SW2 whole entry): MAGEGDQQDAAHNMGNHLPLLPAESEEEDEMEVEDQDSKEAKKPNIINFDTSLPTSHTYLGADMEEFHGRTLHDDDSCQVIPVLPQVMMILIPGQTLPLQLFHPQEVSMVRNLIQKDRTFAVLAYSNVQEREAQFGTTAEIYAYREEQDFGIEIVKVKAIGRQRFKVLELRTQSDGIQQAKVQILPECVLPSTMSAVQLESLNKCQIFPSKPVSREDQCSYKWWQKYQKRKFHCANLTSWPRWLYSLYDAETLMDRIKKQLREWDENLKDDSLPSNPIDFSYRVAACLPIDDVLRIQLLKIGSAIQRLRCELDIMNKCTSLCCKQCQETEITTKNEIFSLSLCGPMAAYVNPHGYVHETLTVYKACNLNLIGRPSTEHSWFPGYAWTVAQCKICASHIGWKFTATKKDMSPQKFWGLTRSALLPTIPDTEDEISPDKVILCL
T1 sequence (Q16531 whole entry partner): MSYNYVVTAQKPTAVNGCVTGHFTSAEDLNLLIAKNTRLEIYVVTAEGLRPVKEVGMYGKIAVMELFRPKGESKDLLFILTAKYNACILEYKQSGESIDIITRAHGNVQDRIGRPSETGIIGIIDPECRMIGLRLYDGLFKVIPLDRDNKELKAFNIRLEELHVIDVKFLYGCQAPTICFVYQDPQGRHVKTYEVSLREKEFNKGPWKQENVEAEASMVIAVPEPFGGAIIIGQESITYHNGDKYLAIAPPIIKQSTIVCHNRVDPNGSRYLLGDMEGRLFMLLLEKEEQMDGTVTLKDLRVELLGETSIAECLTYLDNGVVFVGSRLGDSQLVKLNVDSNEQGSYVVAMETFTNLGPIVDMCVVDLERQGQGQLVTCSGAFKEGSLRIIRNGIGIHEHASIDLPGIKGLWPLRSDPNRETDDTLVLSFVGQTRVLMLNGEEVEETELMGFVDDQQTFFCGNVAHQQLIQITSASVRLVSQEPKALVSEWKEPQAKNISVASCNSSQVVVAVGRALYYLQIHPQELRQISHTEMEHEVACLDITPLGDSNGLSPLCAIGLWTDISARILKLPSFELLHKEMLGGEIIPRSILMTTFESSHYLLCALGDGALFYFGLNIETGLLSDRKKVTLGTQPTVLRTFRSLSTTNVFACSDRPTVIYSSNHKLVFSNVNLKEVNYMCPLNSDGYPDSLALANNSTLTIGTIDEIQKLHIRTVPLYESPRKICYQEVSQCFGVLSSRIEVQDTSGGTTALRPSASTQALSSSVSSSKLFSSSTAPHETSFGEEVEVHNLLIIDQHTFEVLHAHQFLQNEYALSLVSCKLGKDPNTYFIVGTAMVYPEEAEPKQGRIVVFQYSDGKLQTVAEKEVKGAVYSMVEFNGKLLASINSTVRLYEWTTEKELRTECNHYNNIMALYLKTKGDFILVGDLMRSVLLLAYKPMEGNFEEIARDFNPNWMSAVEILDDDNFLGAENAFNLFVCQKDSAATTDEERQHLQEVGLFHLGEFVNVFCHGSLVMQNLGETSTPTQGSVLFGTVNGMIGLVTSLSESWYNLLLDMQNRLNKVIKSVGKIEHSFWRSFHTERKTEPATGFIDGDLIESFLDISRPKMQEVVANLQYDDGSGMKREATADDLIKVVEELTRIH
T1 sequence (Q13619 whole entry partner): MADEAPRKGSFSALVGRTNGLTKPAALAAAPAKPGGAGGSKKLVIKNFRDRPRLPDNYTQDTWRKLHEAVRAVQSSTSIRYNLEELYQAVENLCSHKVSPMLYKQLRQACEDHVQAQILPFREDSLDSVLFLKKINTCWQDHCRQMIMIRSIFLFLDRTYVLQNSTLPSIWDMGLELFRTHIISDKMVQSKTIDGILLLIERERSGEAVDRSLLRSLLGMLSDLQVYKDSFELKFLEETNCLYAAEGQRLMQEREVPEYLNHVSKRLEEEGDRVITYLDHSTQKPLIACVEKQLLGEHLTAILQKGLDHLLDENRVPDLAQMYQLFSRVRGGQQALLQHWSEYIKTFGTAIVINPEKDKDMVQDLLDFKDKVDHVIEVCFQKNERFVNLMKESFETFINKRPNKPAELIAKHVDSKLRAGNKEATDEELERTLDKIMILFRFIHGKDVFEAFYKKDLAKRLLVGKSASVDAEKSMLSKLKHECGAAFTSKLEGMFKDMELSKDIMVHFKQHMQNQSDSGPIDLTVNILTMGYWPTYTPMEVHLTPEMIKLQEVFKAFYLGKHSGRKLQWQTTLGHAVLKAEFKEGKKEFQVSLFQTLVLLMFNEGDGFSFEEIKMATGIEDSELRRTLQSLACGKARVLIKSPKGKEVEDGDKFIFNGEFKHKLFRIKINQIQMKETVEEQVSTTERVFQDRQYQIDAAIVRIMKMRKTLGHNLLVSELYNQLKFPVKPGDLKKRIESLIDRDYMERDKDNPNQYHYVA
T1 sequence (P62877 whole entry partner): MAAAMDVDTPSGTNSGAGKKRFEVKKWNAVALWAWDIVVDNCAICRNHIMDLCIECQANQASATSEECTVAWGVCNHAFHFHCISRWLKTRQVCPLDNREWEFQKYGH

Compound `Nc1cccc2c1C(=S)N(C1CCC(=O)NC1=O)C2=O` (stereo not shown) [3-MP, 3-monothiopomalidomide] has an IC50 [1] of 0.21 µM, an AUCInf ([2]; brain, 2.65 mg/kg I.P.) of 676.54 ng·h/g and an AUCLast ([2]; brain, 2.65 mg/kg I.P.) of 550.20 ng·h/g. It also gave an AUCInf ([2]; brain, 26.5 mg/kg I.P.) of 9052.48 ng·h/g, an AUCLast ([2]; brain, 26.5 mg/kg I.P.) of 8968.50 ng·h/g and a Kp ([2]; 2.65 mg/kg, 2.65 mg/kg I.P., read-out: Brain/plasma ratio) of 0.47. For the same compound, the Kp ([2]; 2.65 mg/kg, across the two doses 26.47 and 2.65 mg/kg I.P., read-out: brain/plasma drug concentration ratio) was 0.44 to 0.47, the Kp ([2]; 26.5 mg/kg, 26.5 mg/kg I.P., read-out: Brain/plasma ratio) was 0.44 and the Cmax ([2]; brain, 2.65 mg/kg I.P.) was 454 ng/g. The Tmax ([2]; brain, 2.65 mg/kg I.P.) was 30 min, the Cmax ([2]; brain, 26.5 mg/kg I.P.) was 4230 ng/g and the Tmax ([2]; brain, 26.5 mg/kg I.P.) was 60 min. It also gave an AUC(0-inf) ([2]; plasma, 2.65 mg/kg I.P.) of 1.44 µg·h/mL, an AUC(0-t) ([2]; plasma, 2.65 mg/kg I.P.) of 1.41 µg·h/mL and a Cmax ([2]; plasma, 2.65 mg/kg I.P.) of 0.978 µg/mL. For the same compound, the Tmax ([2]; plasma, 2.65 mg/kg I.P.) was 30 min, the AUC(0-inf) ([2]; plasma, 26.5 mg/kg I.P.) was 20.8 µg·h/mL and the AUC(0-t) ([2]; plasma, 26.5 mg/kg I.P.) was 20.7 µg·h/mL. The Cmax ([2]; plasma, 26.5 mg/kg I.P.) was 9.58 µg/mL, the Tmax ([2]; plasma, 26.5 mg/kg I.P.) was 60 min and the “contusion volume (loss of cortical tissue)” value [3, 7] was “unchanged”. The lateral ventricle enlargement [3, 7] was “unchanged”, the “TBI-induced morphological alterations in astrocytes (surface area, cell volume, branch area, branch length, number of branches)” value ([3]; both low and high doses, ipsilateral (p < 0.0001) and contralateral cortex) was “significantly ameliorated” and the “CCI-induced microglial morphological alterations (ramification index, branches, branch length, spanned area, junctions, endpoints)” value [3, 8] was “partially but significantly returned”. The “astrocyte complexity (total Sholl intersections)” value [3, 8] was “significantly mitigated”, the “ex vivo stability in human plasma” value [4] was “stable” and the oral bioavailability [5] was 38.5%. For the same compound, the “stability in ex vivo plasma and liver homogenate samples” value [6] was “relatively stable”.

From publication PMC12172326 (Journal of Biomedical Science, 2025)
